“And” between values parts separate entries of the source, which are not always exact repeats. Equal entries are not always repeated.
Columns and labels:
[1] = system: murine fibroblast line L929; assay: 3D (DNA Damage Detection) test after H2O2 stress; assay type: cell-based; settings: 3 μg/ml, L929 pre-treated 16 hours, H2O2 100 μM 30 minutes; for % DNA protection: basal control 100%, H2O2 stressed 0%
Source text: They decided to generate the lesions to DNA by means of H2O2 stress and to analyze indirectly the damage thereby caused, by analyzing the repair reaction. For that purpose, a kit referred to as the 3D (standing for “DNA Damage Detection”) test was used. This biochemical test mimics, in vitro, the repair reaction by means of excision (Salles B. et al Anal. Biochem. 1995; 232: 37-42 and Salles B. et al Biochimie 1999; 81: 53-58). The 3D test is based on the repairing of DNA lesions using purified human cell extracts.
The products were assessed using the murine fibroblast line L929. The cells are pre-treated with the products (Table III) for 16 hours and are then stimulated with H2O2 (Hydrogen Peroxide 3%—Ref. GIFRER—Laboratoire Gifrer Barbezat) at 100 μM for 30 minutes.
The principle is as follows: After damaging the genomic DNA (oxidative treatment), the cells are lysed. The lysate is deposited on a microplate coated with polylysine: • 1—Adsorption of the DNA • 2—Incubation of the DNA with a protein extract (enriched with repair enzymes) and a pool of nucleotides wherein one nucleotide is labeled with biotin (dUTP-Biotin)—Repair of the lesions and incorporation of the “dUTP-Biotin” labeled nucleotides in the DNA. • 3—Incubation with an “Avidin-Peroxidase” enzyme complex—Recognition by the avidin of the incorporated dUTP-Biotin. • 4—Addition of a luminescent peroxidase substrate and quantification of the emitted signal, which is proportional to the number of repaired lesions.
The test performance protocol is followed in accordance with the instructions of the kit supplier (Solyscel 3D Test—Ref: SFRIDN013— AES Laboratoire). At the end of the reaction, the plate is read in a luminometer (MITHRAS LB940-BERTHOLD).
The ratio below allows the percentage protection against the causation of lesions to DNA by oxidative stress to be calculated for each concentration of product tested (the Intensity of Luminescence—or IL—is an expression of the quantity of DNA lesions).
The values indicated in this Table are percentages of inhibition (or % protection) of lesions to DNA following exogenous oxidative stress, compared to “basal control” cells (100%) and “H2O2 stressed” cells (0%).

[2] = system: murine fibroblast line L929; assay: TBARS test: lipid peroxidation after H2O2-Fe2+/Fe3+ stress; assay type: cell-based; settings: L929 pre-treated 16 hours, H2O2-Fe2+/Fe3+ 1 hour
Protocol: In order to assess membrane degradation, the authors of the invention have measured lipid peroxidation by means of an in vitro assay of complexes formed between the products of lipid oxidation and thiobarbituric acid. These complexes are called TBARS (standing for “Thiobarbituric Acid Reactive Substances”) and give their name to the test: the TBARS Test.
In order to mimic chemical oxidative stress, the fibroblast line L929 was treated with a complex composed of hydrogen peroxide (H2O2) and iron (Fe^2+/Fe^3+), accordingly reproducing Fenton's reaction, a source of OFRs and, more particularly, the free hydroxyl radical (OH^∘) (Vessey D. A. et al J. Invest Dermatol. 1992; 99: 859-63): H2O2+Fe^2+→OH^∘+OH^−+Fe^3+.
The products were assessed using the murine fibroblast line L929. The cells are pre-treated with the various concentrations of products (Table I) for 16 hours and then stimulated with the H2O2—Fe^2+/Fe^3+ complex for 1 hour. The LK0304 batch of unsaponifiable extract of pulp of fruit of the argan tree was prepared in accordance with Example 2.
The peroxidation of membrane lipids is analyzed by TBARS measurement (according to Morliére P. et al Biochim. Biophys. Acta. 1991; 1084: 261-268).
In an acid medium, at 95° C., complexes referred to as TBARS (standing for “ThioBarbituric Acid Reactive Substances”) are formed between the lipid oxidation products (malondialdehyde or MDA) and thiobarbituric acid (TBA), which can be fluorescence-assayed relative to a MDA standard series. The TBARS assay value is then expressed in pmol/μg of proteins. The proteins and TBARS are assayed in the intracellular medium.
Starting from the calculation of the TBARS in pmol/μg of proteins, the protective efficacy of the various products against oxidation of the lipid membranes was calculated as follows.

[3] = at a dose lower than the triterpene fraction A devoid of erythrodiol; cited from earlier work
[4] = compared to the triterpene fraction; cited from earlier work

Molecule	% lesions to DNA [1] [%]	Intensity of luminescence [1]	% DNA protection [1] [%]	Protection of membrane lipids in % Mean ([2]; 0.3 μg/ml)	Protection of membrane lipids in % Mean ([2]; 1 μg/ml) [%]	% DNA protection ([1]; listed as erythrodiol)	Toxicity [3]	Benefit with respect to UVA and UVB [4]	Protection of membrane lipids in % Mean ([2]; 400 μg/ml-928.7 μM) [%]	Protection of membrane lipids in % Mean ([2]; 400 μg/ml-928.7 μM, listed as Vitamin E)
CC1(C)CC[C@]2(C)CC[C@]3(C)C(=CC[C@@H]4[C@@]5(C)CC[C@H](O)C(C)(C)[C@@H]5CC[C@]43C)[C@@H]2C1 [β-Amyrine]	125.4	13133.3	−25.4	–	–	–	–	–	–	–
C[C@H]1[C@H](C)CC[C@]2(C)CC[C@]3(C)C(=CC[C@@H]4[C@@]5(C)CC[C@H](O)C(C)(C)[C@@H]5CC[C@]43C)[C@H]12 [α-Amyrine]	52.4	8663.3	47.6	–	–	–	–	–	–	–
CC1(C)CC[C@]2(CO)CC[C@]3(C)C(=CC[C@@H]4[C@@]5(C)CC[C@H](O)C(C)(C)[C@@H]5CC[C@]43C)[C@@H]2C1 [Erythrodiol]	1	5520	99	33% and 33.75%	38.43	the most active	toxic	only mediocre benefit	–	–
Vitamin E [Vit E]	–	–	–	–	–	–	–	–	56.62	about 56%
C=C(C)[C@@H]1CC[C@]2(C)CC[C@]3(C)[C@H](CC[C@@H]4[C@@]5(C)CC[C@H](O)C(C)(C)[C@@H]5CC[C@]43C)[C@@H]12 [Lupeol]	58.2	9020	41.8	–	–	–	–	–	–	–
